Results taken from patent US20210246140A1, “MODULATORS OF METABOTROPIC GLUTAMATE RECEPTOR 2” (The General Hospital Corporation, priority 2020, published 2021).

Legend:
[1] = PAMPA-BBB (parallel artificial membrane permeation assay); conditions: pH 7.4, 18 h
[2] = Plasma protein binding assay (equilibrium dialysis, RED device); format: in vitro ADME; conditions: rat plasma
Experimental: Disposable RED device inserts (product 90006) were from Thermos Scientific (Waltham, Mass.). Each insert was made of two side-by-side chambers separated by a vertical cylinder of dialysis membrane (MWCO 8,000) validated for minimal non-specific binding. A stock solution of the test compound in DMSO was spiked into the rat plasma to reach a concentration of 10 μM. 400 μL of sample solution was placed into the sample chamber of the RED device, and 600 μL of phosphate-buffered saline (PBS) was added to the buffer chamber of the RED device. Samples were prepared in triplicates. The plate was covered with aluminum sealing cover and incubated at 37° C. on an orbital shaker at approximately 200 rpm for 5 h. After incubation, 300 μL of post-dialysis samples from the buffer and sample chambers were transferred to different microcentrifuge tubes. To the buffer sample was added 300 μL of plasma, and an equal volume of buffer was added to the collected plasma sample. 600 μL of cold acetonitrile was added to the samples, and the samples were vortexed and incubated for 30 min on ice and then were centrifuged at 14000 rpm for 10 min. Supernatant was transferred to vial for HPLC analysis (XTerra™ MS C18 5μ, 2.1×250 mm column; Gradient elution from 5% to 90% B in 30 min; 0.1 M ammonium formate in water (A) and acetonitrile (B); UV 254 nm; 100 μL of injection volume). The percentage of the test bound compound was calculated as % Free=(Concentration in buffer chamber/Concentration in plasma chamber)×100%; % Bound=100%−% Free (FIG. 6).
The experimental lipophilicity was measured by using liquid-liquid partition between n-octanol and water (“shake-flask method”) [see ref. 54]. […] The plasma protein binding comprises compounds' binding to albumin, α1-acid glycoprotein and lipoproteins once delivered to the bloodstream. This property was evaluated for compounds 1 and 2 by equilibrium dialysis [see ref. 56], where two chambers were separated by a dialysis membrane (MWCO 8 kD). The plasma protein bindings of 1 and 2 are 87.2% and 88.7%, respectively (see FIGS. 20 and 6). Therefore, the high plasma free fraction of compounds 1 and 2 (>10%) would allow enough free drug concentration in blood stream to reach the brain targets.

[3] = Microsomal stability in rat liver microsomes; format: in vitro ADME
Experimental: Compound stability in rat liver microsomal was tested using a published method. [see refs. 57, 58] In a vial 1.5 μL of test compound (1 mM in DMSO stock solution) was mixed with 432 μL of PBS (50 mM, pH 7.4). The mixture was kept at 37° C. for 10 min before adding 13 μL of Sprague-Dawley rat liver microsomes (Sigma-Aldrich, No. M9066). The vial was vortexed and shaken at 37° C. for 5 min, followed by addition of 50 μL of NADPH (10 mM in PBS stock solution) to start the reaction. The mixture was incubated at 37° C. for 0, 5, 15, 30, 45 min, respectively, and quenched by addition of 250 μL of ice-cold acetonitrile and 3 μL of the internal standard (0.5 mM in DMSO). The quenched solutions were centrifuged at 10,000 g for 15 min. The supernatant was collected and quantitated by RP-HPLC (Phenomenex Luna® column 5 μC18, 100 Å, 250×4.6 mm; 0.7 mL/min, 15 min, Acetonitrile/water/0.1% FA). The procedure was repeated three times for each compound. Compound 1-OH was used as internal standard and compound ML128 served as positive control. The percentage of remaining intact test-compound was calculated by (peak area at the specific time point)/(peak area at 0 min)×100%. Each procedure was repeated three times (FIGS. 8 and 9). For FIG. 8, the natural logarithm (In) of peak area ratio (test compound peak area/internal standard peak area) was plotted against time and the gradient of the line was determined. Subsequently, the half-life (t1/2) min was calculated as 0.693/k, where the elimination rate constant (k) equals to negative gradient. V (μL/mg) was obtained as a ratio of volume of incubation (μL)/protein in the incubation (mg). Finally, the intrinsic clearance (CLint) (μL/min/mg protein) was calculated as V×0.693/t1/2.
(§1) The in vitro plasma and liver microsomal stability of 1 and 2 were studied by incubating the test compounds in rat serum and rat liver microsomes as well as NADPH cofactor, respectively, using previously published methods [see refs. 57, 58]. […] The solution stability of 1 was evaluated with buffer solutions at pH 5.0, 7.4 and 9.4, respectively (FIGS. 10 and 20) [see refs. 61].

[4] = Solution stability in aqueous buffers at different pH; format: physicochemical; conditions: buffer solutions at pH 5.0, 7.4 and 9.4, 37° C., 2 h
Experimental: The solution stability of 3 was examined in the aqueous buffers at different pH values. 50 μL of compound in DMSO (0.25 mM) was added to the sodium acetate-KCl—HCl buffer (950 μL, 20 mM, pH 5.0), phosphate buffer (950 μL, 20 mM, pH 7.4), and boric acid-KCl—NaOH buffer (950 μL, 20 mM, pH 9.4), respectively. The mixtures were incubated for 2 h at 37° C. and analyzed by HPLC (Phenomenex Luna® column, 5 μm C18, 100 Å, 250×4.6 mm, eluents: CH3CN/H2O in 0.1% formic acid).
as §1, with “58]. Diltiazem and ML128 (a mGluR4 PAM) [see refs. 59, 60] were used as co-assay QC controls for plasma and microsomal stability assays, respectively, to ensure that the assays were operating properly, and that the activity of the plasma and microsomes were consistent with established criteria.” for “58].”

SMILES: COc1cc(C(F)(F)F)ccc1C1CCN(Cc2nc3ncccc3n2C)CC1 [Compound 1]
- effective permeability Pe [1]: 9.2 ×10⁻⁶ cm/s
- plasma protein binding ([2]; equilibrium dialysis, 10 μM): 87.2%
- fraction unbound at 5 h, 10 μM ([2]; read-out: plasma free fraction): > 0.1
- microsomal CLint at 3 µM ([3]; Sprague-Dawley, pH 7.4, rat liver microsomes, read-out: intrinsic clearance CLint): 17.9 µL/min/mg
- microsomal stability ([3]; rat liver microsomes with NADPH, ML128 as positive control): reasonable microsomal stability
- solution stability [4]: relatively stable
